The values that follow come from US11707464B2, “Methods of treating heavy menstrual bleeding” (AbbVie Inc., priority 2013, dated 2023).

Holding throughout (format): in vivo, human
For data set [1], the system named is premenopausal women with endometriosis. Description: Phase 2 endometriosis studies: uterine bleeding by daily eDiary. The note with it: for days of bleeding per month: eDiary. The method, then: The effects of elagolix on uterine bleeding were evaluated in the Phase 2 endometriosis program, with an analysis of the percentage of days of bleeding per month according to daily reporting of bleeding in an electronic diary (eDiary).

Another data set has as its system women with endometriosis. Nature of the data set: Phase 2 endometriosis studies: safety and tolerability. From the text: The safety and tolerability of elagolix in women with endometriosis has been evaluated in 6 completed Phase 2 studies including 708 women who received at least 1 dose of elagolix. Overall, 475 women have received elagolix for at least 12 weeks and 278 women for a period of at least 24 weeks. The majority of women were Caucasian (78.9% to 100%), while approximately 7% were black and approximately 4.5% were Hispanic. The mean age across these six Phase 2 studies was 31 to 33 years (range 18 to 48 years) and mean body mass index (BMI) of 23 to 28 kg/m. Overall, 40% to 70% of women had received prior therapy for the treatment of endometriosis, and hormonal contraceptives were the most common class of drug prescribed for the condition. In addition, the majority were receiving analgesic medications (nonsteroidal anti-inflammatory drugs, opioids, and/or other) prior to study enrollment.
None of these events were serious and they contributed to less than 1% of study discontinuations.

The test system of the next data set is women. Nature of the data set: Suppression of pituitary and ovarian hormones in women. From the text: The term “Elagolix” refers to 4-((R)-2-[5-(2-fluoro-3-methoxy-phenyl)-3-(2-fluoro-6-trifluoromethyl-benzyl)-4-methyl-2,6-dioxo-3,6-dihydro-2H-pyrimidin-1-yl]-1-phenyl-ethylamino)-butyric acid or a pharmaceutically acceptable salt thereof. Elagolix is an orally active, non-peptide GnRH antagonist and is unlike other GnRH agonists and injectable (peptide) GnRH antagonists. […] Methods of making Elagolix and a pharmaceutically acceptable salt thereof are described in WO 2005/007165, the contents of which are herein incorporated by reference.

Data set [2] concerns premenopausal women with uterine fibroids and heavy menstrual bleeding. Nature of the data set: Phase 2a uterine fibroid trial: fibroid volume and uterine volume. The following applies: for percent of subjects who achieved a ≥25% reduction in uterine volume: placebo 9%; for percent of subjects who achieved a ≥25% reduction in fibroid volume: placebo 29%. The source says:
In another embodiment, the present invention relates to methods for reducing the fibroid volume in a subject with uterine fibroids. In one aspect, the methods of the present invention can be used to reduce the fibroid volume by greater than or equal to at least about 25%. In another aspect, the methods of the present invention can be used to reduce the fibroid volume in a subject with uterine fibroids. More specifically, the methods of the present invention can be used to reduce the fibroid volume in a subject with uterine fibroids by volume by greater than or equal to at least about 25%. In another aspect, the methods of the present invention are used to reduce the fibroid volume in a subject with uterine fibroids prior to hysterectomy, myomectomy, or uterine artery embolization. Methods for measuring fibroid volume are known in the art and include ultrasound and/or MRI.
In another embodiment, the present invention relates to methods for reducing the total uterine volume in a subject with uterine fibroids. The “total uterine volume” is the volume of the entire uterus. In one aspect, the methods of the present invention can be used to reduce the total uterine volume by greater than or equal to at least about 25%. In another aspect, the methods of the present invention can be used to reduce the total uterine volume in a subject with uterine fibroids. More specifically, the methods of the present invention can be used to reduce the total uterine volume in a subject with uterine fibroids by greater than or equal to at least about 25%. Methods for measuring total uterine volume are known in the art and include, ultrasound and/or MRI.
This example is a Phase 2a, multicenter, double-blind, placebo-controlled, randomized trial (N=280) with a 3-month treatment duration evaluating the safety and efficacy of Elagolix administered with or without Activella® in premenopausal women with uterine fibroids.
It evaluates the safety and efficacy of […] of Elagolix (100 mg BID, 200 mg BID, 200 mg BID plus low dose Activella® (a combination of 0.5 mg estradiol and 0.1 mg northindrone acetate), 300 mg BID, 300 mg BID plus 1.0 mg of Estrace and 200 mg cyclical Prometrium (collectively referred to as “EP”), 400 mg QD and 600 QD) versus placebo (PBO) to reduce uterine bleeding associated with uterine fibroids and to reduce fibroid volume and uterine volume in premenopausal women 20 to 49 years of age with heavy menstrual bleeding (HMB; >80 mL blood loss per menstrual cycle). The study involved the following six (6) cohorts:
There are a number of efficacy endpoints, but a composite endpoint consisting of two bleeding assessments was used to assess one measure of efficacy. It included the percent of subjects who achieved a menstrual blood loss (MBL) volume of <80 mL at the Final Month (last 28 days of treatment), and also achieved a ≥50% reduction in MBL volume from baseline to the Final Month (last 28 days of treatment) as measured by the Alkaline Hematin (AH) method. Eighty-five percent (85%), 97%, and 30% of subjects achieved the composite bleeding assessment endpoint in the 200 mg BID, 300 mg BID, and placebo groups, respectively (P<0.05 for 200 mg BID versus placebo in cohort 1, and 300 mg BID versus placebo in cohort 2). […]

For `COc1cccc(-c2c(C)n(Cc3c(F)cccc3C(F)(F)F)c(=O)n(C[C@H](NCCCC(=O)O)c3ccccc3)c2=O)c1F` [Elagolix, 4-((R)-2-[5-(2-fluoro-3-methoxy-phenyl)-3-(2-fluoro-6-trifluoromethyl-benzyl)-4-methyl-2,6-dioxo-3,6-dihydro-2H-pyrimidin-1-yl]-1-phenyl-ethylamino)-butyric acid], the “days of bleeding per month” value in data set [1] (250 mg QD compared with 150 mg QD) is “fewer days of bleeding”; in data set [1] (overall, compared with placebo), “fewer days of bleeding per month”. The “bleeding intensity and intervals between bleeding episodes” value in data set [1] (majority of elagolix recipients, individual menstrual charts from eDiary) is “reduced bleeding intensity and often had extended intervals between bleeding episodes”. For the same compound, the “most common adverse events” value with women with endometriosis (12-week and 24-week analysis sets, incidence similar to DMPA-SC in 24-week analysis) was “headache and nausea”. For the same compound, the safety and tolerability result in the data set with women with endometriosis (all daily doses (100 to 250 mg) evaluated) is “safe and well tolerated”. Moreover, the “incidence of AEs that led to discontinuations” value with women with endometriosis (completed Phase 2 endometriosis studies) was 4.8%. In the data set with women with endometriosis (none of these events serious), the “study discontinuations contributed by headache and nausea” value is on record as “less than 1%”. The “suppression of pituitary and ovarian hormones” value with women is listed as “dose dependent suppression”. Besides, the results for the “percent of subjects who achieved a ≥25% reduction in uterine volume” value in data set [2] (200 mg BID) and in data set [2] (300 mg BID) were 50% and 68%, respectively. For the same compound, the results for the “percent of subjects who achieved a ≥25% reduction in fibroid volume” value in data set [2] (200 mg BID) and in data set [2] (300 mg BID) were 63% and 55%, respectively. Further, the “uterine and fibroid volumes (FIG. 4)” value in data set [2] (300 mg BID, within 3 months) was “strongest effects”.
